Measured values reported in US7939558B2, “Compounds having activity in increasing ion transport by mutant-CFTR and uses thereof” (The Regents of the University of California, priority 2004, dated 2011).

Assays:
[1] = target: T1, ΔF508-CFTR (Homo sapiens, UniProt P13569, DEL508-508); experiment: Short-circuit current in primary nasal epithelial cells from ΔF508 homozygous subject; assay type: cell-based; set-up: expressed in transfected cells; conditions: 27° C. 20-24 hours, amiloride, forskolin 20 μM
Method: For short-circuit measurements cells were cultured on Snapwell permeable supports (Corning-Costar) at 500,000 cells/insert. […] Patch clamp experiments were done on ΔF508-CFTR-expressing FRT cells plated in 35-mm Petri dishes.
Human nasal epithelial cells from ΔF508 homozygote subjects were cultured as polarized monolayers on permeable supports for transepithelial short-circuit current measurement.

[2] = target: T1, ΔF508-CFTR; conditions: in combination with cAMP agonists; cited from earlier work
[3] = target: G551D-CFTR (Homo sapiens, UniProt P13569, G551D); experiment: Short-circuit Cl− current in FRT cells expressing G551D-CFTR; conditions: after maximal forskolin
[4] = target: T2, G1349D-CFTR (Homo sapiens, UniProt P13569, G1349D); experiment: Short-circuit Cl− current in FRT cells expressing G1349D-CFTR; assay type: cell-based; conditions: after maximal forskolin
T2 construct: expressed in transfected cells; host or cells: FRT cells
Method: Experiments were done after basolateral membrane permeabilization and in the presence of a transepithelial Cl^− gradient, so that short-circuit current represents apical membrane Cl^− current. […] Cells were plated on a permeable support to generate a polarized epithelium, cultured for 5-7 days, and then incubated at 27° C. for 24 hours. Transepithelial chloride current was measured in a modified Ussing chamber in the presence of a chloride gradient.
In contrast to the ΔF508 mutation, other cystic fibrosis mutations, which number >1000, have a relatively very low frequency. The fraction of CF mutations that cause a pure gating defect (class III mutants) is unknown but is likely to be substantial.

T1 sequence (P13569 with tags, fused parts or gaps DEL508-508): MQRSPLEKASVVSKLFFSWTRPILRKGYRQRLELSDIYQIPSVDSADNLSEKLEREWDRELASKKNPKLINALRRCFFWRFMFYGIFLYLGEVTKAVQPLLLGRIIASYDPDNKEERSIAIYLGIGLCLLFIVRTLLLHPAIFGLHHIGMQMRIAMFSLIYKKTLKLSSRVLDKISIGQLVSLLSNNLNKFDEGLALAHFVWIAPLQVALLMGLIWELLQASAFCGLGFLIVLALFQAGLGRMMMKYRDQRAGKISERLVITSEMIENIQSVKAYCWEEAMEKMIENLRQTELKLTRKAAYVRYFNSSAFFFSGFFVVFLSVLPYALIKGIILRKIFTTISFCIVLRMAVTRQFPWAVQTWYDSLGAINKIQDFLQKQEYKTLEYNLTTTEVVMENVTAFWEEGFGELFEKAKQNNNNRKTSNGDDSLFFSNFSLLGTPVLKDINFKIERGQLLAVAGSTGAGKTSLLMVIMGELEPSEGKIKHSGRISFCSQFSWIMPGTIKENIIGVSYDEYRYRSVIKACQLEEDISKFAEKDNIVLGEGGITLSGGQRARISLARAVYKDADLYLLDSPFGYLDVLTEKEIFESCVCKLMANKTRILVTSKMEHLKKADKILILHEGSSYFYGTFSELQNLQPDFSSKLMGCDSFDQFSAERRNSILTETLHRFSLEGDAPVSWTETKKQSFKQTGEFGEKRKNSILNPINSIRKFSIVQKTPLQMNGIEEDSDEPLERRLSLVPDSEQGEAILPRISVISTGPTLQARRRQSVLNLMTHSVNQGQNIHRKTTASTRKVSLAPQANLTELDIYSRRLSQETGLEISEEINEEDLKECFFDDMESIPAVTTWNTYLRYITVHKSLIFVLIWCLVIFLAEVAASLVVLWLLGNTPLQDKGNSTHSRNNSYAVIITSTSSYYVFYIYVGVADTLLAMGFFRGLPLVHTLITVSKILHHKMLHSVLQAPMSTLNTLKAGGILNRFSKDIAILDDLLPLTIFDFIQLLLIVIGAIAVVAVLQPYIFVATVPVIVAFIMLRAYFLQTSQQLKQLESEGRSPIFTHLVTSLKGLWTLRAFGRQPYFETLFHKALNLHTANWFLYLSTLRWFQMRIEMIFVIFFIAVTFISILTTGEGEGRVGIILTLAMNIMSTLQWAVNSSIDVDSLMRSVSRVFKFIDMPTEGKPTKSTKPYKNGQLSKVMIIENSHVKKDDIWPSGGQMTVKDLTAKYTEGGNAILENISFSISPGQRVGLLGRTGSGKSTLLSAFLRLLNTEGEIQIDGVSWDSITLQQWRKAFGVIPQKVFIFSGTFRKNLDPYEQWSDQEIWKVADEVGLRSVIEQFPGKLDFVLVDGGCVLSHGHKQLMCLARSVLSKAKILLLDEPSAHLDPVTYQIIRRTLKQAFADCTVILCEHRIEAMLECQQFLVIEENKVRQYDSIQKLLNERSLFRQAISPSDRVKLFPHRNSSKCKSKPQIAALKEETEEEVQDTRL
G551D-CFTR, sequence (P13569 whole entry G551D): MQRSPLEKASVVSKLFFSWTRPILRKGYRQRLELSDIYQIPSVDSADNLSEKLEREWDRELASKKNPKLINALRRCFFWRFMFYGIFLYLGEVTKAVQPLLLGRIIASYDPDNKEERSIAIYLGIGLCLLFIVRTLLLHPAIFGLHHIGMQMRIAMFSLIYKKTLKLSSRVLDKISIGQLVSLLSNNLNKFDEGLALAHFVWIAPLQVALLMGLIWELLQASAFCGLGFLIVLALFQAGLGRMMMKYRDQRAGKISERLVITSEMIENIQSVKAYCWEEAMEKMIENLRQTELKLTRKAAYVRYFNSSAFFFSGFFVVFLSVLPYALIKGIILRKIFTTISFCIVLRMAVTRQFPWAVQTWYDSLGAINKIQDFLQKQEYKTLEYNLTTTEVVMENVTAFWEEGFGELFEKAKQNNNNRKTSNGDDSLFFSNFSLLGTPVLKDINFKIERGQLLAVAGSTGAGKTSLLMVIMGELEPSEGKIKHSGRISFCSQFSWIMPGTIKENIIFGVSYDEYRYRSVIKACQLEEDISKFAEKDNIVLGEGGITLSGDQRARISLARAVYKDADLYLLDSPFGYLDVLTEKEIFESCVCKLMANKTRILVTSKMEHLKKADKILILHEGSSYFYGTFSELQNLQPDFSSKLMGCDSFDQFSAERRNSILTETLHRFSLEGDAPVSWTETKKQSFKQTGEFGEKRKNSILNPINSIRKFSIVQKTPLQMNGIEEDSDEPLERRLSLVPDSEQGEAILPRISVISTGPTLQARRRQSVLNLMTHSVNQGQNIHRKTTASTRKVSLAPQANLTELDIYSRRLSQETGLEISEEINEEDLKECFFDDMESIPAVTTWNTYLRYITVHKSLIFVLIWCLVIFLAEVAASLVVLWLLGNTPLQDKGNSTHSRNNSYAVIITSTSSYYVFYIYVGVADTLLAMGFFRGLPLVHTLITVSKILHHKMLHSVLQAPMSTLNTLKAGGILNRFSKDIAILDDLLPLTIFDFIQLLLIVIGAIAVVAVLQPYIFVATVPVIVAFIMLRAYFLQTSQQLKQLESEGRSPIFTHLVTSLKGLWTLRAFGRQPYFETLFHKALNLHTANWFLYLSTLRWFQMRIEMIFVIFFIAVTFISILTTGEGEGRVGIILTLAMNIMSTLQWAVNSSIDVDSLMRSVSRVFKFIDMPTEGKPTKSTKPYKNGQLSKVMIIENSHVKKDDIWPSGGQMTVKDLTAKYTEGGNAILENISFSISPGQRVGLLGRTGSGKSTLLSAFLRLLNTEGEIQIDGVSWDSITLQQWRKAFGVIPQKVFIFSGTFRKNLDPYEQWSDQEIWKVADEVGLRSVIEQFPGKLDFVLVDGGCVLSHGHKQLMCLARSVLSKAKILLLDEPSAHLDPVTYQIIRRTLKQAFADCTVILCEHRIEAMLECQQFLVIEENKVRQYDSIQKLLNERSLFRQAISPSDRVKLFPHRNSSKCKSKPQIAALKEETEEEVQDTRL
T2 sequence (P13569 whole entry G1349D): as the sequence (P13569 whole entry G551D) above, with D551G, G1349D counted along it

O=c1c(-c2ccc(O)cc2)coc2cc(O)cc(O)c12 [genistein, reference compound]
activation of ΔF508-CFTR current [1]: comparably effective but at much higher concentrations | concentration that increases ΔF508-CFTR channel activity [2]: > 50 µM | Cl− current in G551D-CFTR expressing cells [3]: increased Cl^− current substantially, albeit at high micromolar concentrations | Cl− current in G1349D-CFTR expressing cells [4]: increased Cl^− current substantially, albeit at high micromolar concentrations
